Source: patent US8784849B2, “Hydroxyapatite-targeting poly(ethylene glycol) and related polymers” (Nektar Therapeutics, priority 2000, dated 2014)

Columns and labels:
[1] = Binding of PEG(2,000)-α-AHPDP-ω-protein to hydroxyapatite in vitro; settings: 37° C., 5 mM sodium phosphate buffer pH 7.2; for percentage adsorbed to hydroxyapatite: by 1^1/2 hour incubation; for adsorption to hydroxyapatite (in words): 1^1/2 hour incubation
Protocol: Hydroxyapatite (Fast Flow, Fluka, 120 mg) was equilibrated in 1 ml of 5 mM sodium phosphate buffer, pH 7.2 for 24 hours at 37° C. Native lysozyme or the PEG-lysozyme conjugate was mixed with the hydroxyapatite suspension in a 1:1 volume ratio and stirred at 37° C. Samples were taken from the mixture at various time points and analyzed for the percentage of unbound protein or PEG-protein conjugate by gel permeation chromatography. […] All samples had similar protein concentrations.

[2] = Binding of PEG-AHPDP derivatives to hydroxyapatite in vitro; settings: 37° C., 5 mM sodium phosphate buffer pH 7.2
Protocol: Hydroxyapatite (Fast Flow, Fluka, 12 mg) was equilibrated in 1 ml of 5 mM sodium phosphate buffer, pH 7.2 for 24 hours at 37° C.

[3] = Excretion study of 125I-labelled PEG derivatives in mice; assay type: in vivo, Male ICR mice; settings: for average % [125I] captured (urine and feces, % of total counts injected): 2 μCi i.v. tail vein, n=6; for radiolabeled compound excreted in the urine: 8 hr collection, share of captured radiolabel
Protocol: PEG(2,000)-α-L-tyrosine-ω-AHPDP and mPEG(2,000)-α-L-tyrosine were iodinated using a standard chloramine-T procedure (Bolton, Methods Enzymol. 124: 18-29, 1986). In brief, a 15 μL aliquot of PEG(2,000)-α-L-tyrosine-ω-AHPDP or mPEG(2,000)-α-L-tyrosine (2 μg/μL total weight) was mixed with 50 μL of […] phosphate buffer. To this was added 1 mCi of NaI^125 and 10 μL of Chloramine-T (1 μg/μL). The mixture was finger vortexed for 30s followed by addition of 100 μL-Cys (2 µg/µL), followed by another 30s of finger vortexing. The purification was carried out by reverse-phase chromatography. The samples were eluted at 37° C. using a curvilinear gradient of 0.1% trifluroacetic acid (TFA) in acetonitrile (19-63%) versus 0.1% aqueous TFA over 30 min at 1.5 ml.min^−1.
Male ICR mice (20-25 g) were administered either 2 μCi of PEG(2,000)-α-L-tyrosine-ω-AHPDP or mPEG(2,000)-α-L-tyrosine via tail vein injection (100 μL; i.v.). The mice were placed into metabolism cages and urine and feces were collected at the following time points (1, 2, 3, 4, 6, & 8 hr post-injection) (n=6).

[4] = in vivo; cited from earlier work

Compound: 2-PEGmer: PEG-lysozyme multimer with two PEG(2,000)-α-AHPDP chains, separated by size exclusion [Example 2-PEGmer]
- percentage adsorbed to hydroxyapatite [1]: 100%

Compound: 3-PEGmer: PEG-lysozyme multimer with three PEG(2,000)-α-AHPDP chains, separated by size exclusion [Example 3-PEGmer]
- percentage adsorbed to hydroxyapatite [1]: 100%

Compound: PEG(5,000)-α-amine-ω-AHPDP
- adsorption half-life on hydroxyapatite [2]: 45 min

Compound: PEG(2,000)-α-tyrosine-ω-AHPDP [PEG(2,000)-α-L-tyrosine-ω-AHPDP]
- adsorption half-life on hydroxyapatite [2]: 19 min
- average % [125I] captured (urine and feces, % of total counts injected) ([3]; 8 hour time course): 7.7%
- [125I] retained in the body versus mPEG(2,000)-α-L-tyrosine (in words) ([3]; i.v., 8-hour period): significantly greater percentage
- fold lower percentage of [125I] captured than mPEG(2,000)-α-L-tyrosine ([3]; i.v., 8 hour time course): 5 fold
- radiolabeled compound excreted in the urine ([3]; i.v.): ~95%

Compound: CC(O)(P(=O)(O)O)P(=O)(O)O [Etidronate]
- half-life in bone [4]: greater than 90 days

Compound: PEG(2,000)-α-methoxy-ω-L-tyrosine
- adsorption to hydroxyapatite (in words) ([2]; 0.1-1.0 mg/ml): did not show any adsorption
- average % [125I] captured (urine and feces, % of total counts injected) ([3]; 8 hour time course): 47.5%
- radiolabeled compound excreted in the urine ([3]; i.v.): greater than 95%

Compound: Native lysozyme: chicken egg white lysozyme, MW=14,300 Da, used as a model protein [reference compound]
- adsorption to hydroxyapatite (in words) [1]: did not adsorb

Compound: NCCC(O)(P(=O)(O)O)P(=O)(O)O [AHPDP, 3-amino-1-hydroxypropane-1,1-diphosphonic acid, reference compound]
- adsorption half-life on hydroxyapatite [2]: around 1 min

Compound: 1-PEGmer: PEG-lysozyme multimer with one PEG(2,000)-α-AHPDP chain, separated by size exclusion [Example 1-PEGmer]
- adsorption to hydroxyapatite (in words) [1]: limited adsorption
